Marks after values point to notes of the source that are not given here.

One test relates to feedlot steers. To be noted: steers supplemented with ractopamine compared to the control; cited from earlier work.
The next test relates to beef cattle. Description: Feedlot performance and carcass quality of beef cattle. It counts as in vivo, beef cattle of commercial breeds. To be noted: last 30 days of fattening. The text has this:
In this study, all animals received the same prophylactic management, and all were subsequently assigned randomly to one of the following four treatments (25 animals per treatment, divided into pens of 5 experimental units per pen):
Definition of the 4 Treatments
Treatment 1 (Control): control animals (receiving only the basal diet without supplementation of the additive).
Treatment 2 (Ferulic Acid for 30 days=FA30): Animals receiving the basal diet supplemented with 240 ppm of ferulic acid during the last 30 days of the fattening period.
Treatment 3 (Ferulic Acid for 60 days=FA60): Animals receiving the basal diet supplemented with 240 ppm of ferulic acid during the last 60 days of the fattening period.
Treatment 4 (Zilmax commercial Zilpaterp; =ZX): Animals receiving the basal diet and supplemented with 6 ppm hydrochloride zilpaterol during the last 30 days of the fattening period.
During the experimental phase, all animals received a feeding ration consisting of 20% fodder and 80% concentrate. The crop was corn stover, while the concentrate consisted of different proportions of rolled corn grain, soybean meal, canola meal, distillery grains, and molasses. The ration was provided twice a day, and there was free access to the food and drinking water.
Initial and final live weight was recorded in the productive performance trial. The performance test lasted 60 days. Daily feed intake was evaluated, weight was recorded at the beginning and end of experimental period, in order to estimate the average daily gain and feed conversion.
Before concluding the performance test, 2 animals were randomly selected per pen (10 per treatment) for humanitarian slaughter. The animals were sacrificed following the standard procedures of the official Mexican standards in the municipal slaughterhouse of Guadalajara, Jalisco. Animal live weight was recorded before slaughter.
During the slaughter process, the pH of the carcass at 45 min postmortem in the Longissimus dorsi muscle (LD) was measured and the weight of the hot carcass was recorded. The carcasses were refrigerated at 0° C. for 24 hr. After this, the final pH was measured and cold carcass weight recorded, and the classification of carcasses was carried out, recording the Rib eye area (REA) in square inches, back fat thickness (BFT) in mm, and the marbling in the 12th intercostal space of the LD; the skeletal maturity and conformation of the carcass was also evaluated (10 carcasses per treatment). The assessment of quality of the carcass was made following the procedures described by the US Department of Agriculture (USDA, 2000).
All data for response variables of the quality of carcass and meat were analyzed under a completely randomized design, with a one-way ANOVA, taking the experimental treatments as a fixed effect. For carcass BFT and REA characteristics the hot carcass weight was used as a covariable. Regarding the sensory attributes, the model also included the effect of panelist as the repeated measure. The variables of the shelf life study were analyzed as a completely randomized design with factorial arrangement, factor A being the treatment with 4 levels, and factor B, the storage time with 5 levels. When there were statistical differences (P<0.05) between treatments, average comparisons were performed by the multiple range test of Tukey. All data was processed in the NCSS statistical package (NCSS, 2001).

For test [1], the system named is Longissimus dorsi muscle. The test is described as follows: Chemical and physicochemical quality of Longissimus dorsi muscle from supplemented cattle. It counts as in vivo, beef cattle of commercial breeds. To be noted: 240 ppm ferulic acid (FA30) or 6 ppm zilpaterol hydrochloride (ZX), last 30 days of fattening. The protocol:
(§1) Subsequent to the carcass classification the rib eye cut (LD muscle) was obtained of the left side of each selected carcass. Meat samples were identified, vacuum packed, frozen at -18° C., and then shipped under refrigeration by air courier to the Centro de Investigación en Alimentacion y Desarrollo A.C. (CIAD) facilities at Hermosillo, Sonora, to perform quality analysis of the meat: Chemical analysis (moisture and fat content), physicochemical (objective color parameters L*, which measures the brightness of the meat, a* value, which measures the redness, and b* value which measures the tendency towards yellowness, and hue-angle, Warner-Bratzler shear force, water retention capacity and pH). A sensory test was done by a trained panel consisting of 10 members using a descriptive test with a semi-structured 10 cm scale, where zero indicates a […] of the attribute and a 10 indicates a favorable rating (e.g. tenderness, zero indicates extremely hard and 10 extremely tender). The sensory attributes that were measured: total color and overall appearance of raw meat, flavor, odor, color, tenderness, fat perception, juiciness, and perception of connective tissue in cooked meat. […] To measure cooking loss, the meat sample was weighed before and immediately after reaching the final cooking temperature, which was expressed in percentage. All data for response variables of the quality of carcass and meat were analyzed under a completely randomized design, with a one-way ANOVA, taking the experimental treatments as a fixed effect. For carcass BFT and REA characteristics the hot carcass weight was used as a covariable. Regarding the sensory attributes, the model also included the effect of panelist as the repeated measure. The variables of the shelf life study were analyzed as a completely randomized design with factorial arrangement, factor A being the treatment with 4 levels, and factor B, the storage time with 5 levels. When there were statistical differences (P<0.05) between treatments, average comparisons were performed by the multiple range test of Tukey.

For test [2], the system named is Longissimus dorsi muscle. Description: Sensory test of Longissimus dorsi meat by trained panel. It counts as in vivo, beef cattle of commercial breeds. The note with it: FA30 240 ppm or ZX 6 ppm, last 30 days of fattening. As for the experimental part:
as §1

Where [3] appears, read: 240 ppm ferulic acid (FA30) or 6 ppm zilpaterol hydrochloride (ZX) in diet.
Setting [4] is: 240 ppm ferulic acid (FA30) or 6 ppm zilpaterol hydrochloride (ZX).
The mark [5] stands for this setting: cooked meat, semi-structured 10 cm scale.
The mark [6] stands for this setting: raw meat, semi-structured 10 cm scale.

Take `CC(CCc1ccc(O)cc1)NCC(O)c1ccc(O)cc1` (stereo not drawn) [ractopamine]: the “shear force of meat” value with feedlot steers was “significant increase in the shear force”.

`CC(C)N[C@@H]1CCn2c(=O)[nH]c3cccc(c32)[C@H]1O.Cl` [ZX, zilpaterol hydrochloride, reference compound]: in the test on beef cattle (setting [3]), the “CY: carcass yield” value is 61.53^b %, the “FW: final weight” value amounted to 579.4 kg and the “HCW: hot carcass weight” value was 356.34 kg. The “CCW: cold carcass weight” value in the test with beef cattle (240 ppm ferulic acid (FA30) or 6 ppm zilpaterol hydrochloride (ZX) in diet, carcass 24 hr at 0° C.) was determined as 350.62 kg. Besides, in the test with beef cattle (setting [4]), the “BFT: back fat thickness” value is on record as 3.05 mm, the “PH24: pH at 24 h postmortem” value stood at 5.63 and the “REA: rib eye area” value is given as 15.41 Inch^2. Further, the “PH45: pH at 45 min postmortem” value in the test on beef cattle (Longissimus dorsi, 240 ppm ferulic acid (FA30) or 6 ppm zilpaterol hydrochloride (ZX)) is on record as 6.17^a. Moreover, in the test with Longissimus dorsi muscle [1], the Cooking loss is on record as 19.20^b %, the Fat content was found to be 2.36%, the Hue angle turned out to be 36.05 and the Moisture was found to be 73.02%. Also, in the test with Longissimus dorsi muscle [1], the “WHC: water holding capacity” value was determined as 25.13%. In addition, in the test on Longissimus dorsi muscle [1] (Warner-Bratzler), the “SF: shear force” value is 10.37^b kg F. Further, the “L* value” with Longissimus dorsi muscle [1] (fresh meat brightness) was 35.34. The “a* value” in the test with Longissimus dorsi muscle [1] (fresh meat redness) was found to be 16.39. Also, in the test with Longissimus dorsi muscle [1] (fresh meat yellowness), the “b* value” is given as 11.95. The pH with Longissimus dorsi muscle [1] (meat) worked out at 5.57. Further, the Tenderness in the test on Longissimus dorsi muscle [2] (cooked meat, 10 cm scale, zero extremely hard, 10 extremely tender) is 6.85^a. Besides, in the test with Longissimus dorsi muscle [2] (setting [5]), the Connective tissue perception was 1.42, the Fat perception was 3.34, the Flavor intensity is on record as 6.56^a and the Juiciness is on record as 6.00^a. For the same compound, the Odor intensity in the test on Longissimus dorsi muscle [2] (setting [5]) is reported as 7.89. Also, in the test with Longissimus dorsi muscle [2] (setting [6]), the Appearance turned out to be 7.17 and the “Overall Color” value stood at 7.41.

(Values after patent US20130041036A1, “FERULIC ACID AS FEED SUPPLEMENT IN BEEF CATTLE TO PROMOTE ANIMAL GROWTH AND IMPROVE THE MEAT QUALITY OF THE CARCASS AND THE MEAT” (BIOKAB, S.A. DE C.V., priority 2011, published 2013).)
